Results as given in US5252718A, “Fibroblast growth factor antagonists” (The Salk Institute for Biological Studies, priority 1992, dated 1993).
Square brackets hold non-standard residues; d marks the D form. Ends that are not written are not given here. Peptide text beside a SMILES is read from it. Sar = CNCC(=O)O

How the values were obtained:
[1] = test system: FGF receptors of BHK cells; conditions: result in words
3T3 cells = test: [^3 H]-thymidine incorporation in serum-starved 3T3 cells challenged with bFGF; type: cell-based; conditions: 24 hours with peptide and bFGF challenge, then 5 hours label, result in words
Protocol: The synthesis of bFGF(97-120)-NH2 having the formula: H-Arg-Leu-Glu-Ser-Asn-Asn-Tyr-Asn-Thr-Tyr-Arg-Ser-Arg-Lys-Tyr-Ser-Ser-Trp- Tyr-Val-Ala-Lys-Arg-NH2 is conducted in a stepwise manner using a Beckman 990 synthesizer and an MBHA resin in the manner described in Example I. The peptide is judged to be substantially pure using TLC and HPLC. Testing is carried out using a culture of serum-starved 3T3 cells which are incubated for 24 hours with the bFGF peptide fragment and a challenge dose of bFGF and then incubated for 5 hours with radioactive [^3 H]-thymidine to determine whether the fragment will inhibit the incorporation of [^3 H]-DNA in the cell line which will be indicative of its inhibiting cell growth.

[2] = Binding to [^3 H]-heparin; conditions: result in words
BAAE cells = type: cell-based, bovine
Protocol: To determine the effectiveness of the bFGF fragment peptide to inhibit the growth of endothelial cells, the peptide is tested under conditions to measure its ability to modulate both basal cell growth and bFGF-simulated cell proliferation. A bioassay was employed of the type set forth in detail in Gospodarowicz et al., J. Cell Biol., 122, 323-333 (1985), using BAAE cells.
For each test, an initial cell density of between about 0.3-0.5×10^4 cells per well was established in 24-miniwell plates. After 6-8 hours, the cells in each well were treated with a challenge dose of bFGF in the absence, or presence to a varying concentration, of a synthetic FGF antagonist. The precise treatment was repeated 48 hours later. On the fifth day, the cells were digested with trypsin, and the total number of cells in each well was determined using a Coulter particle counter.

| binding of the peptide to heparin [2] | Compound | inhibition of bFGF binding to BHK cells (receptor) [1] | inhibition of bFGF-induced mitosis ([^3 H]-thymidine incorporation) (3T3 cells) | also measured |
| --- | --- | --- | --- | --- |
| – | H-YRSRKYSSWFVALKR-NH2 [[Phe^115]-bFGF(106-120)-NH2, H-Tyr-Arg-Ser-Arg-Lys-Tyr-Ser-Ser-Trp-Phe-Val-Ala-Leu-Lys-Arg-NH2] | very strongly inhibits | very good inhibition | – |
| binds to heparin | H-YRSRKYSSWY-NH2 [bFGF(106-115)-NH2, H-Tyr-Arg-Ser-Arg-Lys-Tyr-Ser-Ser-Trp-Tyr-NH2] | very strongly inhibits | very good inhibition | – |
| – | H-YNTYRSRKYSAWYVALKRTGQYKLGPKTGPGQKAILFLPMSAKS-NH2 [[Ala^113]-bFGF(103-146)-NH2] | very strongly inhibits | – | – |
| binds itself to heparin | H-SNNYNTYRSRKYSSWYVALKR-NH2 [bFGF(100-120)-NH2, H-Ser-Asn-Asn-Tyr-Asn-Thr-Tyr-Arg-Ser-Arg-Lys-Tyr-Ser-Ser-Trp-Tyr-Val-Ala- Leu-Lys-Arg-NH2] | very strongly inhibits | very good inhibition | – |
| – | H-YRSRKYSSMYVALKR-NH2 [[Met^114]-bFGF(106-120)-NH2, H-Tyr-Arg-Ser-Arg-Lys-Tyr-Ser-Ser-Met-Tyr-Val-Ala-Leu-Lys-Arg-NH2] | very strongly inhibits | very good inhibition | – |
| binds to heparin | YNTYRSRKYSSWYVALKR-NH2 [bFGF(103-120)-NH2, H-Tyr-Asn-Thr-Tyr-Arg-Ser-Arg-Lys-Tyr-Ser-Ser-Trp-Tyr-Val-Ala-Leu-Lys-Arg- NH2] | very strongly inhibits | very good inhibition | – |
| – | H-YNTYRSRKYSSWYVALKRTGQYKLGPKTGPGQKAILFLPMSAKS-NH2 [bFGF(103-146)-NH2, H-Tyr-Asn-Thr-Tyr-Arg-Ser-Arg-Lys-Tyr-Ser-Ser-Trp-Tyr-Val-Ala-Leu-Lys-Arg- Thr-Gly-Gln-Tyr-Lys-Leu-Gly -Pro-Lys-Thr-Gly-Pro-Gly-Gln-Lys-Ala-Ile-Leu-Phe-Leu-Pro-Met-Ser-Ala-Lys-Ser-NH2] | very strongly inhibits | – | inhibition of FGF binding to heparin [2]: very strongly inhibits |
| binds to heparin | H-FFFERLESNNYNTYRSRKYSSWYVALKR-NH2 [bFGF(93-120)-NH2, H-Phe-Phe-Phe-Glu-Arg-Leu-Glu-Ser-Asn-Asn-Tyr-Asn-Thr-Tyr-Arg-Ser-Arg-Lys- Tyr-Ser-Ser-Trp-Tyr-Val-Ala Leu-Lys-Arg-NH2] | inhibits the binding | – | antagonist activity to both basal and bFGF-stimulated endothelial cell growth (BAAE cells; result in words): full antagonist activity |
| very strong binding affinity | YKNGGFFLRIHPDGRVDGVREKSDPHIKLQLQAEERGVVSIKGV-NH2 [[Tyr^25]-bFGF(25-68)-NH2] | – | – | binding affinity for BHK cells [1]: very strong binding affinity; reducing cell population, bFGF-stimulated endothelial cell growth (BAAE cells; bFGF-stimulated growth, manner of Example II, concentration not given): about 95%; reducing cell population, basal endothelial cell growth (BAAE cells; basal growth, manner of Example II, concentration not given): about 86%; antagonist activity to both basal and bFGF-stimulated endothelial cell growth (BAAE cells; result in words): full antagonist activity |
| binds itself to heparin | H-Arg-Leu-Glu-Ser-Asn-Asn-Tyr-Asn-Thr-Tyr-Arg-Ser-Arg-Lys-Tyr-Ser-Ser-Trp- Tyr-Val-Ala-Lys-Arg-NH2 (H-RLESNNYNTYRSRKYSSWYVAKR-NH2) [bFGF(97-120)-NH2] | very strongly inhibits | very good inhibition | – |
| – | H-YRSRKYSSWYVAL-NH2 [bFGF(106-118)-NH2, H-Tyr-Arg-Ser-Arg-Lys-Tyr-Ser-Ser-Trp-Tyr-Val-Ala-Leu-NH2] | inhibits binding | – | antagonist activity in mitogenic assays (BAAE cells; result in words): partial antagonist activity |
| fairly strong binding affinity | H-Cys-Lys-Asn-Gly-Gly-Phe-Phe-T-Arg-Ile-His-Pro-Asp-NH2 [bFGF(25-37)-NH2] | – | – | binding affinity for BHK cells [1]: fair affinity; antagonist activity to basal endothelial cell growth (BAAE cells; basal growth only, result in words): some antagonist activity |
| – | CC[C@H](C)[C@H](NC(=O)[C@H](CO)NC(=O)[C@@H](NC(=O)[C@@H](NC(=O)CNC(=O)[C@H](CCCNC(=N)N)NC(=O)[C@H](CCC(=O)O)NC(=O)[C@H](CCC(=O)O)NC(=O)[C@H](C)NC(=O)[C@H](CCC(N)=O)NC(=O)[C@H](CC(C)C)NC(=O)[C@H](CCC(N)=O)NC(=O)[C@H](CC(C)C)NC(=O)[C@H](CCCCN)NC(=O)[C@@H](NC(=O)[C@H](Cc1c[nH]cn1)NC(=O)[C@@H]1CCCN1C(=O)[C@H](CC(=O)O)NC(=O)[C@H](CO)NC(=O)[C@H](CCCCN)NC(=O)[C@H](CCC(=O)O)NC(=O)[C@H](CCCNC(=N)N)NC(=O)[C@@H](NC(=O)CN(C)C(=O)[C@H](CC(=O)O)NC(=O)[C@@H](NC(=O)[C@H](CCCNC(=N)N)NC(=O)CNC(=O)[C@H](CC(=O)O)NC(=O)[C@@H]1CCCN1)C(C)C)C(C)C)[C@@H](C)CC)C(C)C)C(C)C)C(=O)N[C@@H](CCCCN)C(=O)NCC(=O)N[C@H](C(N)=O)C(C)C [[Sar42]-bFGF(36-68)-NH2] (H-PDGRVD[Sar]VREKSDPHIKLQLQAEERGVVSIKGV-NH2) | – | – | antagonist activity to both basal and bFGF-stimulated endothelial cell growth (BAAE cells; result in words): full antagonist activity |
| strong affinity | H-YCKNGGFFLRIHPDGRVDGVREKSDPHIKLQLQAEERGVVSIKGV-NH2 [bFGF(24-68)-NH2] | – | – | ID50 (BAAE cells): about 5 micromolar; cell population reduced, bFGF-stimulated cell growth (BAAE cells; bFGF-stimulated cell growth, peptide about 100 μg/ml): about 92%; cell population reduced, basal cell growth (BAAE cells; basal cell growth, peptide about 100 μg/ml): about 84%; antagonist activity to both basal and bFGF-stimulated endothelial cell growth (BAAE cells; result in words): full antagonist activity |
| binds to heparin | H-YRSRKYSSWYVALKR-NH2 [bFGF(106-120)-NH2, H-Tyr-Arg-Ser-Arg-Lys-Tyr-Ser-Ser-Trp-Tyr-Val-Ala-Leu-Lys-Arg-NH2] | very strongly inhibits | very good inhibition | – |
